In patent publication US20030040105A1, “Microfluidic micromixer” (priority 1999, published 2003):

Molecular target: T1, streptavidin coated bead bearing fluorescein biotin (Streptomyces avidinii, UniProt P22629)
T1 construct: purchased Spherotech Inc., Libertyville, Ill
Assay: unquenching of fluorescein biotin streptavidin beads by native biotin, flow cytometry
Type: binding
Conditions: streptavidin beads with quenched fluorescein biotin, typical
Method: Data are plotted as mean channel fluorescence (MCF) versus time for several concentrations of biotin. The binding of fluorescein biotin to streptavidin-coated beads shown in FIG. 12A is characterized by the quenching of fluorescence of particles bound relative to free fluorescein biotin. The quenching is relieved when free biotin is added. The base line fluorescence indicated by the constant signal on the right signifies the “ostrich quenched” fluorescein biotin beads. Typically, this type of quenching, “ostrich quenching,” occurs when the fluorescein moiety associates with the streptavidin-binding pocket adjacent to the biotin-moiety bearing site FIG. 12A. […] The subsequent increase in fluorescence signal on right is caused by homogeneously mixing native biotin with the microspheres causing the unquenching of FITC-biotin in the streptavidin receptor pocket on the bead surface.
A 200 μL volume suspension of streptavidin coated beads (3.7×10^7 beads/mL) was diluted to 4 mL in TRIS buffer, (100 mM Tris HCl, 150 mM NaCl, 0.1% BSA, 0.02% sodium azide, pH 7.5). Subsequently, 1.0 μL of 8.7×10^−6 M fluorescein biotin solution was added to the beads. The sample was continuously agitated for 20 minutes, then centrifuged and resuspended in 6.0 mL of buffer. The final bead suspension comprised of ˜1.1 million beads/mL with a million fluorescein biotin molecules per bead. […]

T1 sequence (P22629 25-183): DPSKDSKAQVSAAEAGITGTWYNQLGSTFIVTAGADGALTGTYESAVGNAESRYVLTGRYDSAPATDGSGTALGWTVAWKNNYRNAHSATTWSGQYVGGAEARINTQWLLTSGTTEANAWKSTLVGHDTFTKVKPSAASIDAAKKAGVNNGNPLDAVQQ

SMILES: O=C(O)CCCC[C@@H]1SC[C@@H]2NC(=O)N[C@@H]21 [native biotin, Biotin]
- increase in fluorescence intensity after mixing with excess native biotin: eight-fold increase
